Consider ten molecules from patent US11447466B2, “Substituted indole compounds useful as inhibitors of TLR7/8/9” (BRISTOL-MYERS SQUIBB COMPANY, priority 2017, dated 2022).

What all share (type): cell-based
One experiment concerns the target T1, human TLR7 (Homo sapiens, UniProt Q9NYK1).
T1 construct: host or cells: HEK-Blue cells
T1 sequence (Q9NYK1 27-1049): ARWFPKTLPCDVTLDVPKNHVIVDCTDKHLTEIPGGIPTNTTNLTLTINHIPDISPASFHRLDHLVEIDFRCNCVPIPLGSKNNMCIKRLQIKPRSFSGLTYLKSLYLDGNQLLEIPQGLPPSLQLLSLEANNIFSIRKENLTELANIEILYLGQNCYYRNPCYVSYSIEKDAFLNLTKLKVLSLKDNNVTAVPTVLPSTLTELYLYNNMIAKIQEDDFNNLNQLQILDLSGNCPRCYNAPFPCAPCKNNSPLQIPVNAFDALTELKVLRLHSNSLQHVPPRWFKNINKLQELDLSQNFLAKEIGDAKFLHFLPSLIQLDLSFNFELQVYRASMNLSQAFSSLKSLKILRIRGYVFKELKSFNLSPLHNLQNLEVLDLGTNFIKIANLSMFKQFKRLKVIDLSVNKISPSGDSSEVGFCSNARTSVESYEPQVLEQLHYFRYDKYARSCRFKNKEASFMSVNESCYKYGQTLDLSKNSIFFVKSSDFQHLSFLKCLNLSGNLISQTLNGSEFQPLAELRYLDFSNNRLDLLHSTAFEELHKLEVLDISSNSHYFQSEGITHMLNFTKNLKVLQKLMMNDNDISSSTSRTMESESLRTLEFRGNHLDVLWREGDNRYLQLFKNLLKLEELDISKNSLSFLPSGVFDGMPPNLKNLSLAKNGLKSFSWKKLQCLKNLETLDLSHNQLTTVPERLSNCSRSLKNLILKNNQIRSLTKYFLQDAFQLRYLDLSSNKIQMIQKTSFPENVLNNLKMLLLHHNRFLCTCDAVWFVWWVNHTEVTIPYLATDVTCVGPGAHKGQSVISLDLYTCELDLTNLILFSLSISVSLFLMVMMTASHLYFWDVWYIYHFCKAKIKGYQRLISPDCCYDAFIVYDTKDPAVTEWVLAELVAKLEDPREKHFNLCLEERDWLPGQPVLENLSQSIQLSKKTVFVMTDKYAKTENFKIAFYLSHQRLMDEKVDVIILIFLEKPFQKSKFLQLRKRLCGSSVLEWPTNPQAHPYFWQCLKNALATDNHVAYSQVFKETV
The experiment is described as follows: TLR7 inhibition reporter assay (HEK-Blue SEAP reporter, gardiquimod stimulation). The following applies: HEK-Blue cells overexpressing human TLR7, SEAP reporter, gardiquimod 7.5 μM, 22 hour incubation. The method, boiled down:
(§1)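 HEK-Blue cells overexpressing human TLR7, TLR8 or TLR9 carry a SEAP reporter driven by NF-κB/AP-1 sites. Compounds (0.05 nM–50 μM) were preincubated 30 min at room temperature, then cells were stimulated with gardiquimod 7.5 μM (TLR7), R848 15.9 μM (TLR8) or ODN2006 5 nM (TLR9) for 22 h at 37 °C.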

The target of another experiment is T2, human TLR8 (Homo sapiens, UniProt Q9NR97).
T2 construct: host or cells: HEK-Blue cells
T2 sequence (Q9NR97 27-1041): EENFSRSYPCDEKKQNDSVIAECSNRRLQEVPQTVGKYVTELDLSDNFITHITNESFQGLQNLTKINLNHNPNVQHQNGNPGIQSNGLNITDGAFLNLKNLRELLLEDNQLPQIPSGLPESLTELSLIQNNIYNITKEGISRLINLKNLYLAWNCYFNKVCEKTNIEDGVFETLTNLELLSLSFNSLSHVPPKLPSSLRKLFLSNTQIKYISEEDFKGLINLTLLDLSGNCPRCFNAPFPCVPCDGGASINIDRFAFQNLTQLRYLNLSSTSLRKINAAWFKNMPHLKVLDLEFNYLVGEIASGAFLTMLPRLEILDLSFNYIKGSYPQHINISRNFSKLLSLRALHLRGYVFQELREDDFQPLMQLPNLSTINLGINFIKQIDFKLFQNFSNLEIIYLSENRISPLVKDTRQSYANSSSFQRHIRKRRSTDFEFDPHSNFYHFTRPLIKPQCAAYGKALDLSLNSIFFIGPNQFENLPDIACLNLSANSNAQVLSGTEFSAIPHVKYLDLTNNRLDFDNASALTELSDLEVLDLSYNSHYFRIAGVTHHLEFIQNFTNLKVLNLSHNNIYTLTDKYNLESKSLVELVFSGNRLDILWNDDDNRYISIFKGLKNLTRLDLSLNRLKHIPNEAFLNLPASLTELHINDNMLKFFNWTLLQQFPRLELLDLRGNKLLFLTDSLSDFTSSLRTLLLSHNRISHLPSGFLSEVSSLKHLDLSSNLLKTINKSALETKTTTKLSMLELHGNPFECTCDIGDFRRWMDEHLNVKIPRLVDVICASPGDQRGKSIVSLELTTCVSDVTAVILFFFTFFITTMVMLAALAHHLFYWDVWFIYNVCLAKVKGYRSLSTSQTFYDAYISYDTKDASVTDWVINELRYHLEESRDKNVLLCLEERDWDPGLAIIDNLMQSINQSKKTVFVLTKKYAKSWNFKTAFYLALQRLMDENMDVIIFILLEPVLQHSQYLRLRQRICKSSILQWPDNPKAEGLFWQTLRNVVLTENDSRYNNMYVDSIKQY
The experiment is described as follows: TLR8 inhibition reporter assay (HEK-Blue SEAP reporter, R848 stimulation). The following applies: HEK-Blue cells overexpressing human TLR8, SEAP reporter, R848 15.9 μM, 22 hour incubation. The method, boiled down:
as §1

The next experiment deals with T3, human TLR9 (Homo sapiens, UniProt Q9NR96).
T3 construct: host or cells: HEK-Blue cells
T3 sequence (Q9NR96 26-1032): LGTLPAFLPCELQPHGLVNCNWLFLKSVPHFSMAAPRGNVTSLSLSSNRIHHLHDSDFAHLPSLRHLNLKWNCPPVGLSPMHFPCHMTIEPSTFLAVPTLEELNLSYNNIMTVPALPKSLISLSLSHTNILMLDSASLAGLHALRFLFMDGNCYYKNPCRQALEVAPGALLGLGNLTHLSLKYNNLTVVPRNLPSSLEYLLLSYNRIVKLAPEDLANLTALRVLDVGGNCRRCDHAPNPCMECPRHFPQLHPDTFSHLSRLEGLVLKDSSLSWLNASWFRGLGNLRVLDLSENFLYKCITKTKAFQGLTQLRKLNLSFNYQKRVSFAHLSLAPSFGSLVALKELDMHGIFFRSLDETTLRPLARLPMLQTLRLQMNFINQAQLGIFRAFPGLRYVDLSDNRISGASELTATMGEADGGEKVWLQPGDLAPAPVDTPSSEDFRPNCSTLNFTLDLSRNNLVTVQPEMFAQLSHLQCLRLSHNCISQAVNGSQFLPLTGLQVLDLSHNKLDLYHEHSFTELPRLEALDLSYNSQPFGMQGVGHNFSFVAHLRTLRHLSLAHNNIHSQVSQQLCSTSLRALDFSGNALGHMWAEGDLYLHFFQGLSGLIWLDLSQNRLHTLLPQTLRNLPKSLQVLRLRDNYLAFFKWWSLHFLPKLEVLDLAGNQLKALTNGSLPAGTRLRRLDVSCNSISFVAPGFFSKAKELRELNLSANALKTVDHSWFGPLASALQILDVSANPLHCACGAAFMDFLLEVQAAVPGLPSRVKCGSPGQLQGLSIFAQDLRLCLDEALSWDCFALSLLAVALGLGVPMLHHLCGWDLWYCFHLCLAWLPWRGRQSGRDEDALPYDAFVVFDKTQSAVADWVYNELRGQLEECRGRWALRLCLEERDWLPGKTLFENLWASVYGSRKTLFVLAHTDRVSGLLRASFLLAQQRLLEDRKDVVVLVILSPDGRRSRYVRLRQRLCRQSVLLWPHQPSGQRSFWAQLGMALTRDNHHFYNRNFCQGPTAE
Put plainly: TLR9 inhibition reporter assay (HEK-Blue SEAP reporter, ODN2006 stimulation). The following applies: HEK-Blue cells overexpressing human TLR9, SEAP reporter, ODN2006 5 nM, 22 hour incubation. In short, it runs like this:
as §1
Background: Reporter assays use an easily measured gene product as a stand-in for the process of interest.

pIC50: −log10 of the molar value.

As a reminder, the pIC50 is the IC50 on a negative log10 scale, so that one unit is a factor of ten. A lower pIC50 goes with a high IC50. In the case of `Cc1c(-c2[nH]c3ccc(C4CCN(C(CCO)CCO)CC4)cc3c2C(C)C)cn(C)c(=O)c1Cl` [Example 243, 3-chloro-5-(5-(1-(1,5-dihydroxypentan-3-yl)piperidin-4-yl)-3-isopropyl-1H-indol-2-yl)-1,4-dimethylpyridin-2(1H)-one], the values for the negative-log IC50 (pIC50) against human TLR7, at human TLR8 and against human TLR9 were 8.85, 8.04 and 5.75, respectively.
As for `Cc1nc(-c2[nH]c3ccc(C4CCN(CC(C)(C)O)CC4)cc3c2C(C)C)cn(C)c1=O` [Example 312, 5-(5-(1-(2-hydroxy-2-methylpropyl)piperidin-4-yl)-3-isopropyl-1H-indol-2-yl)-1,3-dimethylpyrazin-2(1H)-one], the pIC50 was 7.45 against human TLR7, 7.65 against human TLR8 and 5.50 on human TLR9.
On the same counts, the results for `CCCN1CCC(c2ccc3[nH]c(-c4cc(-c5cncnc5)c(=O)n(C)c4)c(C(C)C)c3c2F)CC1` [Example 258, 5-(4-fluoro-3-isopropyl-5-(1-propylpiperidin-4-yl)-1H-indol-2-yl)-1-methyl-3-(pyrimidin-5-yl)pyridin-2(1H)-one] are 8.35, 8.96 and 6.08.
On the same counts, the results for `CC(C)c1c(-c2cc(-c3ccc(F)nc3)c(=O)n(C)c2)[nH]c2ccc(C3CCN(C(C)C)CC3)cc12` [Example 342, 6′-fluoro-5-(3-isopropyl-5-(1-isopropylpiperidin-4-yl)-1H-indol-2-yl)-1-methyl-[3,3′-bipyridin]-2(1H)-one] are 7.89, 7.80 and 5.48.
The like results for `Cc1cc(-c2[nH]c3ccc(C4CCN(C)CC4)cc3c2C(C)C)cn(CC(F)(F)F)c1=O` [Example 265, 5-(3-isopropyl-5-(1-methylpiperidin-4-yl)-1H-indol-2-yl)-3-methyl-1-(2,2,2-trifluoroethyl)pyridin-2(1H)-one] were, in that order, 7.70, 7.37 and 5.30.
For the molecule `Cc1cc(-c2[nH]c3ccc(C4CCN(C5CCOCC5)CC4)cc3c2C(C)C)nn(C)c1=O` [Example 194, 6-(3-isopropyl-5-(1-(tetrahydro-2H-pyran-4-yl)piperidin-4-yl)-1H-indol-2-yl)-2,4-dimethylpyridazin-3(2H)-one], the negative logarithm of the IC50 (pIC50) against human TLR7 is 7.99; against human TLR8 it was 8.20; against human TLR9, 5.53.
On the same counts, the results for `CCc1cc(-c2[nH]c3ccc(C4CCNCC4)cc3c2C(C)C)c(C)n(C)c1=O` [Example 25, 3-ethyl-5-(3-isopropyl-5-(piperidin-4-yl)-1H-indol-2-yl)-1,6-dimethylpyridin-2(1H)-one] are 7.39, 8.11 and 5.86.
On the same counts, the results for `CC(C)c1c(-c2cc(-c3cncnc3)c(=O)n(C)c2)[nH]c2ccc(C3CCN(CCCC(F)(F)F)CC3)cc12` [Example 104, 5-(3-isopropyl-5-(1-(4,4,4-trifluorobutyl)piperidin-4-yl)-1H-indol-2-yl)-1-methyl-3-(pyrimidin-5-yl)pyridin-2(1H)-one] are 7.88, 8.46 and 5.57.
Regarding `CCCN1CCC(c2ccc3[nH]c(-c4cc(-c5cccnc5)c(=O)n(C)c4)c(C(C)C)c3c2)CC1` [Example 245, 5-(3-isopropyl-5-(1-propylpiperidin-4-yl)-1H-indol-2-yl)-1-methyl-[3,3′-bipyridin]-2(1H)-one], the results for the negative-log IC50 (pIC50) against human TLR7, on human TLR8 and against human TLR9 were 8.14, 8.70 and 6.07, respectively.
Turning to `CC(C)c1c(-c2cc(-c3cncnc3)c(=O)n(C)c2)[nH]c2ccc(C3CCN(C(C)C)CC3)cc12` [Example 244, 5-(3-isopropyl-5-(1-isopropylpiperidin-4-yl)-1H-indol-2-yl)-1-methyl-3-(pyrimidin-5-yl)pyridin-2(1H)-one], the negative logarithm of the IC50 (pIC50) at human TLR7 is 8.22; against human TLR8 it was 8.74; against human TLR9, 6.02.
